Counter-ions that a name gives are not always drawn.
Columns and labels:
Type in all cases: cell-based, human
MCF-7 cells [1] = assay: Annexin V-FITC/propidium iodide flow cytometry; conditions: 24 h; for viability at 5 µM: MCF7, 5 µM
Description: The MCF-7 cells were seeded on 6-well plates (1 × 10^5 cells per well) and incubated for 24 h. Afterwards, the cells were washed, and tested compounds (Les-6416, Les-6418, Les-6381, Les-6423, and Les-6424) were added in a concentration of 5 µM. The reference drug doxorubicin hydrochloride was applied in a concentration of 0.5 µM. The cells were incubated with the compounds for 24 h. Afterwards, the cells were washed several times with cold PBS and the cell suspensions were prepared in the binding buffer from the kit at a concentration of 1 × 10^6 cells/mL. A total of 100 µL of suspension was collected from each sample and transferred to the tubes. After that, 5 µL of Annexin V-FITC and 5 µL of propidium iodide were added. After 15 min of incubation at room temperature in a dark environment, the content of the tubes was filled with binding buffer up to 500 µL and assessed by BD FACSCanto II flow cytometer (Becton Dickinson Biosciences, San Jose, CA, USA). A total of 1 × 10^4 events were measured for each sample. The results were investigated by applying FACSDiva software Version 6.1.3. (BD Biosciences Systems, San Jose, CA, USA).
To assess the effects of novel compounds on apoptosis, we utilized flow cytometry analysis with Annexin V-FITC and Propidium Iodide double staining. In this way, we could distinguish between different cell populations based on their state: unstained or alive cells, cells stained with propidium iodide or necrotic cells, cells only stained with FITC-labeled annexin V or early apoptotic cells, and cells stained with both annexin V and propidium iodide or late apoptotic cells.

caspase 7 = assay: FLICA caspase-3/7 activity, flow cytometry; conditions: 5 µM, 24 h, MCF-7
Description: (§1) To determine the effects of the novel compounds on the caspases-3/7, caspase-8, caspase-9, and caspase-10 activity, the FLICA Caspase-3/7 Assay Kit, FLICA Caspase-8 Assay Kit, FLICA Caspase-9 Assay Kit, and FLICA Caspase-10 Assay Kit were applied (ImmunoChemistry Technologies, Bloomington, MN, USA). MCF-7 cells were seeded on 6-well plates (1 × 10^5 cells per well) and incubated for 24 h. Afterwards, they were treated for 24 h with tested compounds (Les-6416, Les-6418, Les-6381, Les-6423, and Les-6424) in a concentration of 5 µM and the reference drug doxorubicin hydrochloride in a concentration of 0.5 µM. Next, cells were amassed and washed two times with cold PBS, followed by resuspension in an Apoptosis Wash Buffer to a final concentration of 5 × 10^5 cells/mL. Afterwards, 290 µL of the prepared cell suspensions were transferred into tubes, followed by the addition of 10 µL of FLICA solution, prepared immediately before use, to each sample and incubated for an hour at 37 °C. Next, cells were washed two times with 2 mL of Apoptosis Wash Buffer, provided in the kit, centrifuged, and resuspended in 300 µL of the buffer. Prepared samples were assessed by a BD FACSCanto II flow cytometer (Becton Dickinson Biosciences, San Jose, CA, USA). For each sample, 1 × 10^4 events were analyzed. The obtained results were investigated by applying FACSDiva software Version 6.1.3 (BD Biosciences Systems, San Jose, CA, USA).
(§2) To further investigate the effects of the newly synthesized compounds on the process of apoptosis we decided to measure their impact on various caspases as evidence of intrinsic (caspase 9) or extrinsic (caspase 8, 10) pathways of programmed cell death by applying flow cytometry analysis after 24 h treatment of MCF-7 breast cancer cells with novel 4-thiazolidinone derivatives and reference drug doxorubicin hydrochloride. […] With 41.28 ± 5.45%, 43.23 ± 2.85%, and 41.90 ± 6.89% of cells with activated caspase 8, 10, and 9, respectively, Les-6416 continued the trend of displaying the most significant effect on the three tested caspases. […]

caspase 8 = assay: FLICA caspase-8 activity, flow cytometry; conditions: 5 µM, 24 h, MCF-7
Description: as §1, §2

MCF-7 cells [2] = assay: JC-1 mitochondrial membrane potential, flow cytometry; conditions: 5 µM, 24 h, MCF-7, JC-1
Description: Lipophilic fluorochrome JC-1 (5,5′,6,6′-tetrachloro-1,1′,3,3′-tetraethylbenzimidazolcarbocyanine iodide) (BD Biosciences, San Diego, CA, USA) was applied to determine the novel structures’ effects on the MMP [35]. MCF-7 cells were seeded on 6-well plates at 5 × 10^6 cells per well, followed by incubation for 24 h. Afterwards, the cells were treated for 24 h with new 4-thiazolidinone derivatives (Les-6416, Les-6418, Les-6381, Les-6423, and Les-6424) in a concentration of 5 µM and the reference drug doxorubicin hydrochloride in a concentration of 0.5 µM. Then, cells were collected at a concentration of 1 × 10^6 cells/mL and washed two times with PBS. Next, 0.5 mL of the pre-prepared JC-1 working solution was added to each sample in accordance with the instructions of the manufacturer, followed by incubation at 37 °C for 15 min in a CO2 incubator. After that, an assay buffer was added to each sample to wash the cells several times. Afterwards, 0.5 mL from each sample was transferred to the tubes for immediate assessment using a BD FACSCanto II flow cytometer (Becton Dickinson Biosciences, San Jose, CA, USA). For each sample, 1 × 10^4 events were analyzed. The obtained results were investigated by applying FACSDiva software Version 6.1.3 (BD Biosciences Systems, San Jose, CA, USA).
A critical determinant of the induction of the intrinsic pathway of apoptosis is the decrease in mitochondrial membrane potential (ΔΨm). To investigate the effects of the novel 4-thiazolidinones on mitochondrial membrane potential, flow cytometry analysis of JC-1 dye was applied. JC-1 is a carbocyanine lipophilic cationic fluorochrome whose fluorescence depends on the MMP. Red fluorescence is emitted in viable cells with healthy mitochondria; however, apoptotic or necrotic cells with damaged mitochondria emit green fluorescence.

[3] = Homo sapiens, read-out: Viable cells, cell population

Structure (SMILES) | Necrotic cells, cell population (MCF-7 cells [1]; 0.5 µM) [%] | viability at 0.5 µM (MCF-7 cells [1]; Homo sapiens, MCF7, 0.5 µM, read-out: Viable cells, cell population) [%] | viability at 5 µM (MCF-7 cells [1]; [3]) [%] | cells with active caspase 7 (caspase 7) [%] | cells with active caspase 8 (caspase 8) [%] | Reduced ΔΨm, cell population (MCF-7 cells [2]) [%] | Early apoptotic cells, cell population (MCF-7 cells [1]; 5 µM) [%] | Late apoptotic cells, cell population (MCF-7 cells [1]; 5 µM) [%] | Necrotic cells, cell population (MCF-7 cells [1]; 5 µM) [%] | proapoptotic effect in comparison to the control (MCF-7 cells [1]; 5 µM)
COc1cccc2c1C(=O)c1c(O)c3c(c(O)c1C2=O)C[C@@](O)(C(=O)CO)C[C@@H]3O[C@H]1C[C@H](N)[C@H](O)[C@H](C)O1 [DOX, Doxorubicin hydrochloride, reference compound] | 27.23 ± 3.76 | 59.6 |  |  |  |  |  |  |  | 
COc1ccc(C=C2SC(Nc3cc(OC)c(OC)c(OC)c3)=NC2=O)cc1 [Les-6381, 5-(4-Methoxybenzylidene)-2-((3,4,5-trimethoxyphenyl)amino)thiazol-4(5H)-one] |  |  | 49.6 | 15.05 ± 1.73 | 19.8 ± 3.69 | 27.95 ± 1.43 |  |  |  | 
COc1cc(NC2=NC(=O)C(=Cc3ccc4cc[nH]c4c3)S2)cc(OC)c1OC [Les-6416, 5-((1H-Indol-6-yl)methylene)-2-((3,4,5-trimethoxyphenyl)amino)thiazol-4(5H)-one] |  |  | 39.8 | 47.90 ± 0.57 | 41.28 ± 5.45 | 33.80 ± 0.85 | 8.23 ± 2.56 | 45.63 ± 10.29 | 0.07 ± 0.06 | 
COc1cc(NC2=NC(=O)C(=Cc3c[nH]c4ccccc34)S2)cc(OC)c1OC [Les-6418, 5-((1H-Indol-3-yl)methylene)-2-((3,4,5-trimethoxyphenyl)amino)thiazol-4(5H)-one] |  |  | 47.7 | 19.85 ± 0.07 |  | 22.35 ± 3.06 | 7.55 ± 1.17 | 44.68 ± 8.18 | 0.13 ± 0.05 | 
COc1cc(NC2=NC(=O)C(=Cc3cccs3)S2)cc(OC)c1OC [Les-6423, 5-(Thiophen-2-ylmethylene)-2-((3,4,5-trimethoxyphenyl)amino)thiazol-4(5H)-one] |  |  | 90 |  | 18.13 ± 1.96 |  |  |  |  | did not have any statistically significant results

From article PMC12190436, “5-Ene-2-arylaminothiazol-4(5H)-ones Induce Apoptosis in Breast Cancer Cells” (Cells, 2025)
